System: MV-4-11 cells
Experiment: Gene expression microarray analysis (Affymetrix PrimeView) and GSEA
Assay type: cell-based, human
Parameters: RFU PODN (11730768_x_at) / Fold change /veh PODN (11730768_x_at) / RFU LINC00158 (11744669_a_at) / Fold change /veh LINC00158 (11744669_a_at) / RFU DUSP10 (11751237_a_at) / Fold change /veh DUSP10 (11751237_a_at) / RFU ID3 (11757404_x_at) / Fold change /veh ID3 (11757404_x_at) / RFU PLEKHG5 (11737974_s_at) / Fold change /veh PLEKHG5 (11737974_s_at) / RFU LRRC4B (11730491_at) / Fold change /veh LRRC4B (11730491_at) / RFU GIMAP4 (11747438_a_at) / Fold change /veh GIMAP4 (11747438_a_at) / RFU KRT8 (11758183_x_at) / Fold change /veh KRT8 (11758183_x_at) / RFU CNN1 (11734310_a_at) / Fold change /veh CNN1 (11734310_a_at) / RFU VPS37D (11726825_at) / Fold change /veh VPS37D (11726825_at) / RFU C10orf10 (11716522_x_at) / Fold change /veh C10orf10 (11716522_x_at) / RFU KIR2DL2 /// KIR2DL4 /// KIR2DL5A /// KIR2DL5B /// KIR2DS1 /// KIR2DS2 /// KIR2DS3 /// KIR2DS4 /// KIR3DL3 /// KIR3DL3 /// KIR3DS1 (11738374_at) / Fold change /veh KIR2DL2 /// KIR2DL4 /// KIR2DL5A /// KIR2DL5B /// KIR2DS1 /// KIR2DS2 /// KIR2DS3 /// KIR2DS4 /// KIR3DL3 /// KIR3DL3 /// KIR3DS1 (11738374_at) / RFU C1QL1 (11718748_at) / Fold change /veh C1QL1 (11718748_at) / RFU TMPRSS4 (11747572_a_at) / Fold change /veh TMPRSS4 (11747572_a_at) / RFU HAMP (11756126_x_at) / Fold change /veh HAMP (11756126_x_at) / RFU RNFT2 (11725882_a_at) / Fold change /veh RNFT2 (11725882_a_at) / RFU NR4A2 (11747474_a_at) / Fold change /veh NR4A2 (11747474_a_at) / RFU ABCC12 (11746883_a_at) / Fold change /veh ABCC12 (11746883_a_at) / RFU TMEM136 (11760407_x_at) / Fold change /veh TMEM136 (11760407_x_at) / RFU CLDN22 /// WWC2 (11732394_at) / Fold change /veh CLDN22 /// WWC2 (11732394_at) / RFU HLA-DPB1 (11760878_x_at) / Fold change /veh HLA-DPB1 (11760878_x_at) / RFU SPINT1 (11716480_a_at) / Fold change /veh SPINT1 (11716480_a_at) / RFU GAP43 (11754022_s_at) / Fold change /veh GAP43 (11754022_s_at) / RFU A4GNT (11735810_at) / Fold change /veh A4GNT (11735810_at) / RFU PRB3 (11715151_x_at) / Fold change /veh PRB3 (11715151_x_at) / RFU TUBB4B (11761932_at) / Fold change /veh TUBB4B (11761932_at) / RFU CAPN14 (11732068_a_at) / Fold change /veh CAPN14 (11732068_a_at) / RFU TMCC2 (11721928_a_at) / Fold change /veh TMCC2 (11721928_a_at) / RFU IRGQ (11745062_a_at) / Fold change /veh IRGQ (11745062_a_at) / RFU FAM174B (11720279_a_at) / Fold change /veh FAM174B (11720279_a_at) / RFU TMPRSS4 (11748680_a_at) / Fold change /veh TMPRSS4 (11748680_a_at) / RFU FAM212B (11763350_a_at) / Fold change /veh FAM212B (11763350_a_at) / RFU PLEKHG5 (11743358_a_at) / Fold change /veh PLEKHG5 (11743358_a_at) / RFU ZSCAN30 (11745921_a_at) / Fold change /veh ZSCAN30 (11745921_a_at) / RFU CMKLR1 (11741424_a_at) / Fold change /veh CMKLR1 (11741424_a_at) / RFU LOC101060620 /// MAPK8IP1 (11723275_at) / Fold change /veh LOC101060620 /// MAPK8IP1 (11723275_at) / RFU SPTSSB (11747773_x_at) / Fold change /veh SPTSSB (11747773_x_at) / RFU PRSS12 (11739890_at) / Fold change /veh PRSS12 (11739890_at) / RFU BIN1 (11741810_x_at) / Fold change /veh BIN1 (11741810_x_at) / RFU WNT11 (11732464_a_at) / Fold change /veh WNT11 (11732464_a_at) / RFU C10orf10 (11716521_a_at) / Fold change /veh C10orf10 (11716521_a_at) / RFU C5orf56 (11738089_at) / Fold change /veh C5orf56 (11738089_at) / RFU CYB561 (11721691_x_at) / Fold change /veh CYB561 (11721691_x_at) / RFU ANKRD19P (11752326_a_at) / Fold change /veh ANKRD19P (11752326_a_at) / RFU OR2T12 /// OR2T33 /// OR2T8 (11738714_s_at) / Fold change /veh OR2T12 /// OR2T33 /// OR2T8 (11738714_s_at) / RFU VCAN (11748164_a_at) / Fold change /veh VCAN (11748164_a_at) / RFU JSRP1 (11732532_at) / Fold change /veh JSRP1 (11732532_at) / RFU KRTAP10-11 (11738290_x_at) / Fold change /veh KRTAP10-11 (11738290_x_at) / RFU MYO3A (11730013_a_at) / Fold change /veh MYO3A (11730013_a_at) / RFU EBF3 (11725865_a_at) / Fold change /veh EBF3 (11725865_a_at) / RFU CAMK2N1 (11719241_x_at) / Fold change /veh CAMK2N1 (11719241_x_at) / RFU C5orf56 (11738088_a_at) / Fold change /veh C5orf56 (11738088_a_at) / RFU OLFML3 (11715873_a_at) / Fold change /veh OLFML3 (11715873_a_at) / RFU LOC100653217 /// NTM (11731650_a_at) / Fold change /veh LOC100653217 /// NTM (11731650_a_at) / RFU MAPK11 (11762145_a_at) / Fold change /veh MAPK11 (11762145_a_at) / RFU FIZ1 (11724087_x_at) / Fold change /veh FIZ1 (11724087_x_at) / RFU OASL (11726364_x_at) / Fold change /veh OASL (11726364_x_at) / RFU SOX15 (11748057_x_at) / Fold change /veh SOX15 (11748057_x_at) / RFU CD79A (11719716_a_at) / Fold change /veh CD79A (11719716_a_at) / RFU HIST1H1D (11736915_at) / Fold change /veh HIST1H1D (11736915_at) / RFU CASKIN2 (11723855_a_at) / Fold change /veh CASKIN2 (11723855_a_at) / RFU LOC730098 (11760151_x_at) / Fold change /veh LOC730098 (11760151_x_at) / RFU OR4N2 (11742367_at) / Fold change /veh OR4N2 (11742367_at) / RFU PRRT2 (11749266_a_at) / Fold change /veh PRRT2 (11749266_a_at) / RFU SNX32 (11753110_a_at) / Fold change /veh SNX32 (11753110_a_at) / RFU CDHR5 (11726645_a_at) / Fold change /veh CDHR5 (11726645_a_at) / RFU RCAN1 (11760418_a_at) / Fold change /veh RCAN1 (11760418_a_at) / RFU FAM167A (11723789_a_at) / Fold change /veh FAM167A (11723789_a_at) / RFU FAM26E (11764081_at) / Fold change /veh FAM26E (11764081_at) / RFU ISYNA1 (11749810_s_at) / Fold change /veh ISYNA1 (11749810_s_at) / RFU ACY1 (11761880_at) / Fold change /veh ACY1 (11761880_at) / RFU 11764098_at / Fold change /veh 11764098_at / RFU SAMD14 (11745864_x_at) / Fold change /veh SAMD14 (11745864_x_at) / RFU NPB (11741838_a_at) / Fold change /veh NPB (11741838_a_at) / RFU TMPRSS6 (11731388_a_at) / Fold change /veh TMPRSS6 (11731388_a_at) / RFU KRTAP10-2 (11738614_at) / Fold change /veh KRTAP10-2 (11738614_at) / RFU ARHGAP8 /// PRR5-ARHGAP8 (11727945_x_at) / Fold change /veh ARHGAP8 /// PRR5-ARHGAP8 (11727945_x_at) / RFU KRTAP5-7 /// NADSYN1 (11734609_at) / Fold change /veh KRTAP5-7 /// NADSYN1 (11734609_at) / RFU RASL12 (11751679_a_at) / Fold change /veh RASL12 (11751679_a_at) / RFU CDKN2B (11736163_a_at) / Fold change /veh CDKN2B (11736163_a_at) / RFU PRF1 (11729649_at) / Fold change /veh PRF1 (11729649_at) / RFU, ZNF638 /// ZNF638-IT1 / Fold change vs veh, ZNF638 /// ZNF638-IT1 / RFU, PANK3 / Fold change vs veh, PANK3 / RFU, SH3YL1 / Fold change vs veh, SH3YL1 / RFU, ZEB2 / Fold change vs veh, ZEB2 / RFU, NRIP1 / Fold change vs veh, NRIP1 / RFU, PTTG1IP / Fold change vs veh, PTTG1IP / RFU, CAPN2 / Fold change vs veh, CAPN2 / RFU, MED14 / Fold change vs veh, MED14 / RFU, SNORA58 / Fold change vs veh, SNORA58 / RFU, C1orf63 / Fold change vs veh, C1orf63 / RFU, LRRFIP1 / Fold change vs veh, LRRFIP1 / RFU, NDUFAF7 / Fold change vs veh, NDUFAF7 / RFU, SLC12A2 / Fold change vs veh, SLC12A2 / RFU, IBTK / Fold change vs veh, IBTK / RFU, ESF1 / Fold change vs veh, ESF1 / Fold change vs veh, TMEM50B / RFU, TAOK1 / Fold change vs veh, TAOK1 / RFU, ACBD3 / Fold change vs veh, ACBD3 / RFU, TMA16 / Fold change vs veh, TMA16 / RFU, RWDD3 / Fold change vs veh, RWDD3 / RFU, BCAT1 / Fold change vs veh, BCAT1 / RFU, EDEM3 / Fold change vs veh, EDEM3 / RFU, TMEM33 / Fold change vs veh, TMEM33 / RFU, WDR75 / Fold change vs veh, WDR75 / RFU, AHCTF1 / Fold change vs veh, AHCTF1 / RFU, TFRC / Fold change vs veh, TFRC / RFU, ZDHHC17 / Fold change vs veh, ZDHHC17 / RFU, NOM1 / Fold change vs veh, NOM1 / RFU, ARL8B / Fold change vs veh, ARL8B / RFU, ZBTB11 / Fold change vs veh, ZBTB11 / RFU, TAMM41 / Fold change vs veh, TAMM41 / RFU, KIAA1704 /// LOC100996395 / Fold change vs veh, KIAA1704 /// LOC100996395 / RFU, ING1 / Fold change vs veh, ING1 / RFU, TRMT61B / Fold change vs veh, TRMT61B / RFU, FUBP3 / Fold change vs veh, FUBP3 / RFU, TP53 / Fold change vs veh, TP53 / RFU, TNKS2 / Fold change vs veh, TNKS2 / RFU, ZFP14 / Fold change vs veh, ZFP14 / RFU, ACTR2 / Fold change vs veh, ACTR2 / RFU, PPP3R1 / Fold change vs veh, PPP3R1 / RFU, PIK3R1 / Fold change vs veh, PIK3R1 / RFU, HNRNPA1 / Fold change vs veh, HNRNPA1 / RFU, RNF170 / Fold change vs veh, RNF170 / RFU, ZNF28 / Fold change vs veh, ZNF28 / RFU, RNGTT / Fold change vs veh, RNGTT / RFU, OGT / Fold change vs veh, OGT / RFU, BRD1 / Fold change vs veh, BRD1 / RFU, MARS / Fold change vs veh, MARS / RFU, ZNF655 / Fold change vs veh, ZNF655 / RFU, FAHD1 / Fold change vs veh, FAHD1 / RFU, BDP1 / Fold change vs veh, BDP1 / RFU, LRRCC1 / Fold change vs veh, LRRCC1 / RFU, ARID1A / Fold change vs veh, ARID1A / RFU, ZNF146 / Fold change vs veh, ZNF146 / RFU, ZNF330 / Fold change vs veh, ZNF330 / RFU, GPN3 / Fold change vs veh, GPN3 / RFU, C9orf123 / Fold change vs veh, C9orf123 / RFU, N4BP2L2 / Fold change vs veh, N4BP2L2 / RFU, ARFIP1 / Fold change vs veh, ARFIP1 / RFU, FAM179B / Fold change vs veh, FAM179B / RFU, BCL10 / Fold change vs veh, BCL10 / RFU, UHRF1BP1L / Fold change vs veh, UHRF1BP1L / RFU, BET1 / Fold change vs veh, BET1 / RFU, CNOT2 / Fold change vs veh, CNOT2 / RFU, ZNF268 / Fold change vs veh, ZNF268 / Fold change vs veh, ZNF507 / RFU, DGCR2 / Fold change vs veh, DGCR2 / RFU, WDSUB1 / Fold change vs veh, WDSUB1 / Fold change vs veh, HSP90B1 /// MIR3652 / RFU, ADSS / Fold change vs veh, ADSS / RFU, GK / Fold change vs veh, GK / RFU, ZNF148 / Fold change vs veh, ZNF148 / RFU, TAF9 / Fold change vs veh, TAF9 / RFU, SLC1A5 / Fold change vs veh, SLC1A5 / RFU, SLMO2 / Fold change vs veh, SLMO2 / RFU, ABCC4 / Fold change vs veh, ABCC4 / RFU, LOC101060439 /// RAP1B / Fold change vs veh, LOC101060439 /// RAP1B / RFU, RFX7 / Fold change vs veh, RFX7 / RFU, GTPBP10 / Fold change vs veh, GTPBP10 / RFU, CNEP1R1 / Fold change vs veh, CNEP1R1 / RFU, BIVM-ERCC5 /// ERCC5 / Fold change vs veh, BIVM-ERCC5 /// ERCC5 / RFU, ILF3 / Fold change vs veh, ILF3 / RFU 11762660_at / Fold change /veh 11762660_at / RFU VCAN (11757783_s_at) / Fold change /veh VCAN (11757783_s_at) / RFU DDX43 (11728927_at) / Fold change /veh DDX43 (11728927_at) / RFU KRT8 (11758188_x_at) / Fold change /veh KRT8 (11758188_x_at) / RFU NKD1 (11759106_at) / Fold change /veh NKD1 (11759106_at) / RFU SRD5A1 (11742802_a_at) / Fold change /veh SRD5A1 (11742802_a_at) / RFU TPSAB1 /// TPSB2 (11721975_s_at) / Fold change /veh TPSAB1 /// TPSB2 (11721975_s_at) / RFU GSTM3 (11746129_a_at) / Fold change /veh GSTM3 (11746129_a_at) / RFU IL23R (11737362_x_at) / Fold change /veh IL23R (11737362_x_at) / RFU TMEM51 (11727254_a_at) / Fold change /veh TMEM51 (11727254_a_at) / RFU PIWIL2 (11732686_x_at) / Fold change /veh PIWIL2 (11732686_x_at) / RFU ORM1 (11744905_x_at) / Fold change /veh ORM1 (11744905_x_at) / RFU CCDC152 (11743942_at) / Fold change /veh CCDC152 (11743942_at) / RFU ECM1 (11717891_a_at) / Fold change /veh ECM1 (11717891_a_at) / RFU IL23R (11748794_a_at) / Fold change /veh IL23R (11748794_a_at) / RFU TNFAIP8L3 (11732012_x_at) / Fold change /veh TNFAIP8L3 (11732012_x_at) / RFU MBOAT4 (11741988_at) / Fold change /veh MBOAT4 (11741988_at) / RFU 11764193_at / Fold change /veh 11764193_at / RFU TMEM53 (11763286_at) / Fold change /veh TMEM53 (11763286_at) / RFU MAGEB2 (11727129_at) / Fold change /veh MAGEB2 (11727129_at) / RFU TMEM200A (11744735_a_at) / Fold change /veh TMEM200A (11744735_a_at) / RFU CCDC152 (11751479_a_at) / Fold change /veh CCDC152 (11751479_a_at) / RFU FAM211A (11726209_a_at) / Fold change /veh FAM211A (11726209_a_at) / RFU RGS16 (11746705_a_at) / Fold change /veh RGS16 (11746705_a_at) / RFU VCAN (11755009_s_at) / Fold change /veh VCAN (11755009_s_at) / RFU RHOB (11743442_s_at) / Fold change /veh RHOB (11743442_s_at) / RFU RGS16 (11720943_a_at) / Fold change /veh RGS16 (11720943_a_at) / RFU RGS16 (11720944_at) / Fold change /veh RGS16 (11720944_at) / RFU, VPS4B / Fold change vs veh, VPS4B / RFU, CREB1 / Fold change vs veh, CREB1 / RFU, DNAJC13 / Fold change vs veh, DNAJC13 / RFU, GNAQ / Fold change vs veh, GNAQ / RFU, CDK5R1 / Fold change vs veh, CDK5R1 / RFU, ZRANB3 / Fold change vs veh, ZRANB3 / RFU, CUL4A / Fold change vs veh, CUL4A / RFU, CCNY / Fold change vs veh, CCNY / RFU, UFL1 / Fold change vs veh, UFL1 / RFU, COG3 / Fold change vs veh, COG3 / RFU, DIAPH2 / Fold change vs veh, DIAPH2 / RFU, SKA2 / Fold change vs veh, SKA2 / RFU, AFF3 / Fold change vs veh, AFF3 / RFU, LMF1 / Fold change vs veh, LMF1 / RFU, IPO11 / Fold change vs veh, IPO11 / RFU, DFFB / Fold change vs veh, DFFB / RFU, FOXP1 / Fold change vs veh, FOXP1 / RFU, CARD8 / Fold change vs veh, CARD8 / RFU, STRN3 / Fold change vs veh, STRN3 / RFU, ADK / Fold change vs veh, ADK / RFU, RASSF2 / Fold change vs veh, RASSF2 / RFU, WIPF1 / Fold change vs veh, WIPF1 / RFU, LARP1B / Fold change vs veh, LARP1B / RFU, RASA1 / Fold change vs veh, RASA1 / RFU, RB1 / Fold change vs veh, RB1 / RFU, PPFIA1 / Fold change vs veh, PPFIA1 / RFU, MAT2A / Fold change vs veh, MAT2A / RFU, CCT5 / Fold change vs veh, CCT5 / RFU, WDR92 / Fold change vs veh, WDR92 / RFU, CUX1 / Fold change vs veh, CUX1 / RFU, TTC7A / Fold change vs veh, TTC7A / RFU, TMEM135 / Fold change vs veh, TMEM135 / RFU, DEPTOR / Fold change vs veh, DEPTOR / RFU, CPM / Fold change vs veh, CPM / RFU, DNAJB6 / Fold change vs veh, DNAJB6 / RFU, CACNA2D3 / Fold change vs veh, CACNA2D3 / RFU, DTX4 / Fold change vs veh, DTX4 / RFU, TFCP2 / Fold change vs veh, TFCP2 / RFU, GMCL1 /// GMCL1P1 / Fold change vs veh, GMCL1 /// GMCL1P1 / RFU, AEBP2 / Fold change vs veh, AEBP2 / RFU, SNHG1 /// SNORD22 /// SNORD25 /// SNORD26 /// SNORD27 /// SNORD28 /// SNORD29 /// SNORD31 / Fold change vs veh, SNHG1 /// SNORD22 /// SNORD25 /// SNORD26 /// SNORD27 /// SNORD28 /// SNORD29 /// SNORD31 / Fold change (Aza/veh), C12orf56 (ProbeSet 11735607_a_at) / Fold change (ACY-1035/veh), C12orf56 (ProbeSet 11735607_a_at) / Fold change (Aza/veh), FGFR1OP (ProbeSet 11751329_s_at) / Fold change (ACY-1035/veh), FGFR1OP (ProbeSet 11751329_s_at) / Fold change (Aza/veh), VPS36 (ProbeSet 11739960_a_at) / Fold change (ACY-1035/veh), VPS36 (ProbeSet 11739960_a_at) / RFU SYPL1 (11715823_x_at) / Fold change /veh SYPL1 (11715823_x_at) / RFU IGFBP7 (11715501_s_at) / Fold change /veh IGFBP7 (11715501_s_at) / RFU REEP3 (11722064_at) / Fold change /veh REEP3 (11722064_at) / RFU IGLL1 (11728026_x_at) / Fold change /veh IGLL1 (11728026_x_at): dose or concentration left out as unconfirmed
Details: MV-4-11 cells, 48 hours

## Nc1ccc(-c2cccs2)cc1NC(=O)c1ccc2c(c1)cc(C1CC1)n2CCN1CCOCC1 [ACY-1035]
  RFU VCAN (11755009_s_at): 8.96 RFU

From article PMC5218480 (PLoS ONE, 2017)
